Experimental data taken from publication PMC7226045, “Ensartinib (X-396) Effectively Modulates Pharmacokinetic Resistance Mediated by ABCB1 and ABCG2 Drug Efflux Transporters and CYP3A4 Biotransformation Enzyme” (Cancers, 2020).

How the values were obtained:
[1] = molecular target: T1, CYP2C8 (Homo sapiens, UniProt P10632); assay: Vivid CYP screening kit, recombinant CYP2C8; format: biochemical; details: recombinant enzyme, 15 min incubation, absolute IC50; read-out: CYP2C8 inhibition IC50
T1 construct: purchased Thermo Fisher Scientific; host or cells: insect microsomal fractions
T1 sequence (P10632 whole entry): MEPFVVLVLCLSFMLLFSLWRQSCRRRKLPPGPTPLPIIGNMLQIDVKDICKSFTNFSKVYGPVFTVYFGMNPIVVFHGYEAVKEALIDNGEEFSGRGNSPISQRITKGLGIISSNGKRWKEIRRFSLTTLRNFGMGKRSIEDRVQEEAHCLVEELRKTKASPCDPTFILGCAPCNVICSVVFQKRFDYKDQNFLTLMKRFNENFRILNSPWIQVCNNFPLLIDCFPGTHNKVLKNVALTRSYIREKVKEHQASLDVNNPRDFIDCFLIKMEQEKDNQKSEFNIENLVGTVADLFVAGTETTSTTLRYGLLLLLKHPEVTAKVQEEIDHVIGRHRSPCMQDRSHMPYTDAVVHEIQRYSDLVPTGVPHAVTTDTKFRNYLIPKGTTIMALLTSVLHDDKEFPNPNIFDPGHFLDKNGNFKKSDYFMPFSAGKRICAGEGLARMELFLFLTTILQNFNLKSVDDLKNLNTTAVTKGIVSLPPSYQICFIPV
Method: (§1) CYP inhibitory assay was performed as described previously. Experiments were performed with commercial Vivid CYP screening kits containing insect microsomal fractions enriched with a specific human CYP isoform, human CYP reductase, and in some cases, human cytochrome b5. The potential inhibitory activity of ensartinib toward CYP1A2, CYP2B6, CYP2C8, CYP2C9, CYP2C19, CYP2D6, CYP3A4, and CYP3A5 (i.e., all CYP isoforms that drug regulatory authorities recommend for testing of inhibition by new molecular entities) was then examined. Experiments were performed using a kinetic mode in black 96-well plates according to the manufacturer´s instructions. Briefly, 5-point serial dilutions of ensartinib or the model inhibitor recommended by the manufacturer in buffer were transferred into the wells, then a master mix consisting of a CYP isoenzyme with an NADPH regeneration system in buffer was added. After a 10 min pre-incubation, the reaction was initiated by adding a mixture of NADP^+ and the appropriate Vivid substrate, after which fluorescence was measured at 1 min intervals for 60 min using an Infinite M200 Pro microplate reader (Tecan, Männedorf, Switzerland). The enzyme concentration and incubation interval used for data evaluation (15 min) placed the systems within the linear regions of the appropriate reaction velocity curves. […]

[2] = test system: MDCKII-ABCC1 cells; assay: MTT proliferation assay, MDCKII-ABCC1; format: cell-based, canine; details: Canis lupus familiaris, 48 h, read-out: IC50, sensitivity to ensartinib
Method: (§2) MTT proliferation assay was performed as described previously.

[3] = set-up: method as in doi:10.1200/JCO.2018.36.15_suppl.e21122; details: in vivo pharmacokinetic studies in humans (patients); cited from earlier work
[4] = MTT proliferation assay, A431-ABCB1; format: cell-based; details: human, A431-ABCB1 cells, read-out: IC50, sensitivity to ensartinib
Method: as §2

[5] = test system: HL60-parent cells; assay: XTT proliferation / drug combination assay, HL60-parent; format: cell-based, human
Method: Briefly, HL60-par, HL60-ABCB1, HL60-ABCG2, and HL60-ABCC1 cells were seeded at 2 × 10^4 cells/well in 96-well culture plates. Immediately after seeding, dilutions of the tested drugs or drug combinations were added to the cells. The plates were then incubated under standard conditions (37 °C, 5% CO2) for 48 h, after which XTT solution in PBS (1 mg/mL) and phenazine methosulfate (7.50 µg/mL) were added to the cells and the plates were incubated for another 5 h. Finally, the cells’ absorbance was measured at 450 nm using a microplate reader (Infinite M200, Tecan, Salzburg, Austria). This method was used to assess the effect of ABC transporters on sensitivity to ensartinib and in drug combination assays.
The parent MDCKII and HL60 cells and their ABCB1-, ABCG2-, and ABCC1-overexpressing counterparts were seeded at the densities specified above onto 96-well culture plates and cultured for 24 h. The medium was subsequently replaced with serial dilutions of ensartinib alone or with various concentrations of a model MDR-susceptible cytostatic agent (daunorubicin or mitoxantrone) with or without 10 µM ensartinib. After 48 h incubation, the cells’ viability was determined as described above. In addition to performing IC50-shift analyses, the viability measurements were converted to FA (fraction of cells affected) values and the effects of drug combinations were quantified using the Chou-Talalay combination index (CI) method as implemented in CompuSyn 3.0.1 (ComboSyn Inc., Paramus, NJ, USA). The effects of concomitantly administered drugs were classified as synergistic (CI < 0.9), additive (0.9 < CI < 1.1), or antagonistic (CI > 1.1) based on the computed CI values [57].

[6] = molecular target: T2, ABCC1 (Homo sapiens, UniProt P33527); assay: calcein AM accumulation assay in MDCKII-ABCC1 cells; format: cell-based; details: read-out: IC50, inhibition of ABCC1-mediated calcein AM efflux
T2 construct: expressed in transfected cells; host or cells: MDCKII-ABCC1 (from Dr. Alfred Schinkel, The Netherlands Cancer Institute)
T2 sequence (P33527 whole entry): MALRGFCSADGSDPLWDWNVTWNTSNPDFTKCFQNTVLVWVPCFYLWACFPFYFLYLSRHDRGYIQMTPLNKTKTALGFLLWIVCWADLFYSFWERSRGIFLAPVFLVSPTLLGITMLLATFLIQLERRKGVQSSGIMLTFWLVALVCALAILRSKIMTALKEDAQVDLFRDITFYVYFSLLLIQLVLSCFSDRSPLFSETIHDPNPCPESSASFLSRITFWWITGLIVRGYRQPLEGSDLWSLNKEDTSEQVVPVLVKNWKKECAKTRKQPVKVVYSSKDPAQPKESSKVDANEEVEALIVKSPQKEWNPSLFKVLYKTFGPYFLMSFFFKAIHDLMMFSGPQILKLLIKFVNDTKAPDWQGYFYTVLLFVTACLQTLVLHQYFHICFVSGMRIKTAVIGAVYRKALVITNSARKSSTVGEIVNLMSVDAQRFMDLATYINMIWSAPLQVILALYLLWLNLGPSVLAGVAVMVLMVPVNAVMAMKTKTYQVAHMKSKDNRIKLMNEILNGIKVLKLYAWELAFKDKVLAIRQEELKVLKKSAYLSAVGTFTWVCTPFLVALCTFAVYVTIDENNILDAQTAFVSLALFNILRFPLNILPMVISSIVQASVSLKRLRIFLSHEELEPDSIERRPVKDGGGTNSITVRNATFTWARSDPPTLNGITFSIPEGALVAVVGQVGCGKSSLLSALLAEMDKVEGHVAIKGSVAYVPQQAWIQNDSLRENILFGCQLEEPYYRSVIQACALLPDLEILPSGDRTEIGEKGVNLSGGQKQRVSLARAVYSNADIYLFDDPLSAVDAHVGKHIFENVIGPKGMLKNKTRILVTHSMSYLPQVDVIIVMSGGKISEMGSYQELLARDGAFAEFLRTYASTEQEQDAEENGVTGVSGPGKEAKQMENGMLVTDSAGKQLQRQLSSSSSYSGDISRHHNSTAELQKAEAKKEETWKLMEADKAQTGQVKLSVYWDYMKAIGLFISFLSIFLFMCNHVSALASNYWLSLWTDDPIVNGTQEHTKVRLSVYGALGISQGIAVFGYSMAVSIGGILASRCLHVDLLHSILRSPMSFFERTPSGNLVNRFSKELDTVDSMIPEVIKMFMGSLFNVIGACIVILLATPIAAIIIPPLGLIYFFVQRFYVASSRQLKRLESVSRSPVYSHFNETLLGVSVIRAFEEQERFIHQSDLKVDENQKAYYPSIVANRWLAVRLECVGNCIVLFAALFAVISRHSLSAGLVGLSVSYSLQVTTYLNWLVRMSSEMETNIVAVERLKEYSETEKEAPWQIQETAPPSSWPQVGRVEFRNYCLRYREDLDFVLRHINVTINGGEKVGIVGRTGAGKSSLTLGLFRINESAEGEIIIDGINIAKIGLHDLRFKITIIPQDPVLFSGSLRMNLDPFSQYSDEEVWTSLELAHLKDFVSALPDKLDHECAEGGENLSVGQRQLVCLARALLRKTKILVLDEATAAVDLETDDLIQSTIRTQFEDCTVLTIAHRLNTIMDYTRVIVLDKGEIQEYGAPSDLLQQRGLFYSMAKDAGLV
Method: Cellular accumulation assay with hoechst 33342 and calcein AM was performed as described previously. Briefly, MDCKII-par, MDCKII-ABCB1, MDCKII-ABCG2, and MDCKII-ABCC1 cells were seeded at densities of 5.0 × 10^4, 5.0 × 10^4, 5.5 × 10^4, and 6.0 × 10^4 cells/well, respectively, on a transparent 96-well plate and grown to full confluence for 24 h under standard conditions. The cells were then washed twice with 1 × PBS, after which was added either a dilution of ensartinib in Opti-MEM (1, 5, 10, 25, or 50 µM) or a specific inhibitor to act as a positive control (1 µM LY335979, 1 µM Ko143, or 25 µM MK-571 for ABCB1, ABCG2, or ABCC1, respectively). Cells were pre-incubated for 10 min, then 8 µM hoechst 33342 (a model substrate for ABCB1 and ABCG2) or 2 µM calcein AM (ABCC1 substrate) diluted in Opti-MEM was quickly added to all wells other than those containing blank samples. The intracellular levels of the substrates were then determined at 1 min intervals for 30 min using a microplate reader (Infinite M200 Pro, Tecan, Männedorf, Switzerland). Fluorescence was monitored in bottom mode using excitation/emission wavelengths of 350/465 and 485/535 nm for hoechst 33342 and calcein AM, respectively.

[7] = test system: A431-ABCC1 cells; assay: MTT proliferation assay, A431-ABCC1; format: cell-based; details: Homo sapiens, 48 h, read-out: IC50, sensitivity to ensartinib
Method: as §2

[8] = MTT proliferation assay, A431-ABCG2; format: cell-based; details: human, A431-ABCG2 cells, read-out: IC50, sensitivity to ensartinib
Method: as §2

[9] = test system: ABCB1, ABCG2, ABCC1 mRNA; assay: Gene induction study (qRT-PCR), ABC transporter mRNA; format: cell-based, human; details: 0.5 µM ensartinib; 24 and 48 h; Caco-2, LS174T, A549, NCI-H1299 cells
Method: Gene induction studies were performed with minor modifications as described recently. Although all gene induction studies involved the use of quantitative real-time reverse transcription PCR (qRT-PCR) to measure mRNA levels, the methods used for specific cell lines varied considerably. Therefore, they are described separately.
For transporter-oriented studies, A549 (24 × 10^4 cells/well), NCI-H1299 (18 × 10^4 cells/well), Caco-2 (50 × 10^4 cells/well), or LS174T (100 × 10^4 cells/well) cells were plated in 12-well plates 24 h before the experiment. Subsequently, the medium was replaced with fresh medium containing 0.5 µM ensartinib, 25 µM rifampicin, or 0.1% DMSO (vehicle control). […] The RNA yield was measured using a NanoDrop ND-1000 spectrophotometer (American Laboratory Trading, East Lyme, CT, USA) while RNA quality and integrity were verified by agarose gel electrophoresis. […] The expression of ABCB1, ABCG2 and ABCC1 was assessed using gb Easy PCR Master Mix and TaqMan qRT-PCR systems in 384-well plates according to the manufacturer´s instructions, amplifying 20 ng of cDNA per reaction. qRT-PCR was performed using QuantStudio 6 (Life Technologies, Carlsbad, CA, USA) with predefined thermal cycling conditions (95 °C for 3 min then 40 repeats of a cycle of 95 °C for 10 s and 60 °C for 20 s). […]

[10] = molecular target: T3, CYP2C19 (Homo sapiens, UniProt P33261); assay: Vivid CYP screening kit, recombinant CYP2C19; format: biochemical; details: recombinant enzyme, 15 min incubation, absolute IC50; read-out: CYP2C19 inhibition IC50
T3 construct: purchased Thermo Fisher Scientific; host or cells: insect microsomal fractions
T3 sequence (P33261 whole entry): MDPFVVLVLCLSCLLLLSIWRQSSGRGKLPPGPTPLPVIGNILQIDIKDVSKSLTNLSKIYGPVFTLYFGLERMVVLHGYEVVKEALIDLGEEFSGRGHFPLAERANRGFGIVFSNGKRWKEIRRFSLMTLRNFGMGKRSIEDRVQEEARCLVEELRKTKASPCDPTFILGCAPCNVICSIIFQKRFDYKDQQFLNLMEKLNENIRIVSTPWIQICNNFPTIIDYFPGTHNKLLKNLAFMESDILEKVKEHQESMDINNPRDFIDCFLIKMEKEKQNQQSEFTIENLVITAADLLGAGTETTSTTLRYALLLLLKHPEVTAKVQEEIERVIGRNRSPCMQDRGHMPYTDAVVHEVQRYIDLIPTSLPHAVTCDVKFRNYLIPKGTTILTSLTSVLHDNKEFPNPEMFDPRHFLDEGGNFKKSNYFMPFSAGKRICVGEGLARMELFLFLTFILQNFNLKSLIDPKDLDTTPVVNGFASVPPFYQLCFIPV
Method: as §1

IC50 [1]: 20.6 µM
IC50 ([5]; Homo sapiens, HL60-parent, 48 h, XTT, read-out: IC50, sensitivity to ensartinib): 31.9 µM
IC50 [6]: > 50 µM
IC50 [7]: 1.86 µM
IC50 [10]: 14.6 µM
SMILES: C[C@@H]1CN(C(=O)c2ccc(NC(=O)c3cc(O[C@H](C)c4c(Cl)ccc(F)c4Cl)c(N)nn3)cc2)C[C@H](C)N1 [ensartinib, Ensartinib]
IC50 [2]: 21.9 µM
Cmax [3]: 1000 nM
IC50 at 48 h [4]: 2.79 µM
combination effect (Chou-Talalay combination index) ([5]; HL60 parental, 10 µM ensartinib with daunorubicin or mitoxantrone, whole FA range): antagonistic or additive
IC50 at 48 h [8]: 2.26 µM
change in mRNA levels of ABCB1, ABCG2, ABCC1 [9]: did not increase or reduce the mRNA levels of ABCB1, ABCG2, or ABCC1 by more than 100% or 50%
